# System: S. aureus Mu50
# Assay: microbe, parasite or virus in culture
# Format: cell-based, Staphylococcus aureus
# Settings: (MIC value for S. aureus FDA209P)/(MIC value for S. aureus Mu50)
# Method: (§1) S. aureus Mu50 (refer to Hiramatsu, K., Hanaki H., et al., J. Antimicrob. Chemother., 1997, 40(1), 135-6) or S. aureus FDA209P (ATCC 6538P) was cultured overnight at 37° C. in 4 mL of TBS (Tryptical Soy Broth, produced by Becton Dickinson) with shaking. After completion of the culture, the cells were suspended in fresh TBS to prepare a cell suspension showing an absorbance of 0.3 at 578 nm. Then, the cell suspension was diluted 500 times with CAMHB mentioned above.
# (§2) CAMHB containing each test compound at each of the aforementioned concentrations was added to each well of a 96-well plate in a volume of 50 μL/well, the aforementioned cell suspension diluted 500 time was added to the well in a volume of 50 μL/well, and stationary culture was carried out overnight at 37° C.
# (§3) MIC values (mg/L) of the flavones and quinolones against the strains were measured in the same manner as that of the measurement of MIC of Example 1, except that CAMHB containing each of the aforementioned flavones and quinolones prepared in Example 2 was used instead of CAMHB containing each of the test compounds.
# (§4) MIC values of the flavones and quinolone for the strains were measured in the same manners as those of Example 1, except that S. aureus Mu50 NR-1 was also used as Staphylococcus aureus in addition to S. aureus FDA209P and S. aureus Mu50, cell suspensions of the strains were prepared.
# (§5) In the same manner as that of Example 1, MIC values of M-246, M-21, J-Q21, and J-Q12.1 for Staphylococcus aureus were measured. M-246 and M-21 were obtained as commercial products, and as J-Q21 and J-Q12.1, those synthesized in Examples 6 and 7 were used.
# 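Throughout, for MIC ratio: ratio is FDA209P MIC divided by Mu50 MIC.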
row,Structure (SMILES),MIC ratio
1,"COc1ccc2c(=O)cc(-c3ccc(O)cc3)oc2c1 [No. 69, 2-(4-hydroxyphenyl)-7-methoxychromen-4-one]",16
2,"CCn1cc(C(=O)O)c(=O)c2cc(F)c(N3CCNCC3)cc21 [Norfloxacin, norfloxacin, reference compound]",0.008

# Same assay, conditions: Example 1, Tables 1 to 10
row,Structure (SMILES),MIC (mg/L) Mu50 [mg/L]
1,COc1ccc(-c2coc3cc(OC4OC(CO)C(O)C(O)C4O)cc(O)c3c2=O)cc1 (stereo not drawn) [compound 110],128
2,O=c1c(-c2ccc(O[C@@H]3O[C@H](CO)[C@@H](O)[C@H](O)[C@H]3O)cc2)coc2cc(O)cc(O)c12 [compound 120],>128
3,COc1cc(-c2[o+]c3cc(O)cc(O)c3cc2O)cc(OC)c1O [compound 130],128
4,COc1cc(-c2[o+]c3cc(O)cc(O)c3cc2O)cc(O)c1O [compound 131],128

# Same assay, conditions: Example 1, Tables 1 to 10; Hydrate
row,Structure (SMILES),MIC (mg/L) Mu50 [mg/L]
1,"O.Oc1cc(O)c2c(c1)OC(c1ccc(O)c(O)c1)C(O)C2 (stereo not drawn) [compound 133, 3,3′,4′,5,7-Flavanpentol Hydrate]",>128

# Same assay, conditions: Staphylococcus aureus, MU50, read-out: MIC (mg/L) Mu50, Example 1, Tables 1 to 10
row,Structure (SMILES),MIC [mg/L]
1,"COc1ccc2c(=O)cc(-c3ccc(O)cc3)oc2c1 [No. 69, 2-(4-hydroxyphenyl)-7-methoxychromen-4-one]",16
2,COc1ccc(-c2coc3cc(O)cc(OC)c3c2=O)cc1OC [compound 108],128

# Same assay, conditions: Staphylococcus aureus, MU50, read-out: MIC (mg/L) S. aureus Mu50, Example 2, Table 12
row,Structure (SMILES),MIC [mg/L]
1,"COc1ccc2c(=O)cc(-c3ccc(O)cc3)oc2c1 [No. 69, 2-(4-hydroxyphenyl)-7-methoxychromen-4-one]",8
2,"CCn1cc(C(=O)O)c(=O)c2cc(F)c(N3CCNCC3)cc21 [Norfloxacin, norfloxacin, reference compound]",64

# System: S. aureus FDA209P (ATCC 6538P)
# Assay: microbe, parasite or virus in culture
# Format: cell-based, Staphylococcus aureus
# Settings: Example 1, Tables 1 to 10
# Method: as §1, §2, §3, §4, §5
row,Structure (SMILES),MIC (mg/L) FDA209P [mg/L]
1,COc1ccc(-c2coc3cc(OC4OC(CO)C(O)C(O)C4O)cc(O)c3c2=O)cc1 (stereo not drawn) [compound 110],128
2,O=c1c(-c2ccc(O[C@@H]3O[C@H](CO)[C@@H](O)[C@H](O)[C@H]3O)cc2)coc2cc(O)cc(O)c12 [compound 120],>128
3,COc1cc(-c2[o+]c3cc(O)cc(O)c3cc2O)cc(OC)c1O [compound 130],128
4,COc1cc(-c2[o+]c3cc(O)cc(O)c3cc2O)cc(O)c1O [compound 131],128
5,"O.Oc1cc(O)c2c(c1)OC(c1ccc(O)c(O)c1)C(O)C2 (stereo not drawn) [compound 133, 3,3′,4′,5,7-Flavanpentol Hydrate]",128

# Same assay, conditions: Staphylococcus aureus; Example 1, Tables 1 to 10; read-out: MIC (mg/L) FDA209P
row,Structure (SMILES),MIC [mg/L]
1,"COc1ccc2c(=O)cc(-c3ccc(O)cc3)oc2c1 [No. 69, 2-(4-hydroxyphenyl)-7-methoxychromen-4-one]",> 128
2,COc1ccc(-c2coc3cc(O)cc(OC)c3c2=O)cc1OC [compound 108],128

# Same assay, conditions: Staphylococcus aureus; Example 2, Table 12; read-out: MIC (mg/L) S. aureus FDA209P
row,Structure (SMILES),MIC [mg/L]
1,"COc1ccc2c(=O)cc(-c3ccc(O)cc3)oc2c1 [No. 69, 2-(4-hydroxyphenyl)-7-methoxychromen-4-one]",128
2,"CCn1cc(C(=O)O)c(=O)c2cc(F)c(N3CCNCC3)cc21 [Norfloxacin, norfloxacin, reference compound]",0.5

# Same assay, conditions: Staphylococcus aureus; Example 3, Table 13; read-out: MIC (mg/L) FDA209P (w, w)
row,Structure (SMILES),MIC [mg/L]
1,"COc1ccc2c(=O)cc(-c3ccc(O)cc3)oc2c1 [No. 69, 2-(4-hydroxyphenyl)-7-methoxychromen-4-one]",> 128
2,"CCn1cc(C(=O)O)c(=O)c2cc(F)c(N3CCNCC3)cc21 [Norfloxacin, norfloxacin, reference compound]",0.5

# System: S. aureus Mu50 NR1-1
# Assay: MIC by broth microdilution, S. aureus Mu50 NR1-1
# Format: cell-based
# Settings: Staphylococcus aureus, MU50NR11; Example 3, Table 13; read-out: MIC (mg/L) Mu50 NR1-1 (S80F, w)
# Method: as §4
# S. aureus Mu50 NR1-1 mentioned in Table 13 is a strain selected stepwise from the clinically isolated S. aureus Mu50 strain with deoxynybomycin, and it has a topoisomerase IV encoded by parC in which a […] (see, Hiramatsu K. et al., J. Antimicrob. Agents, 2012, June; 39 (6), 478-85).
# In Table 13, the descriptions in the parentheses after the strains indicate the mutated amino acid residue and its position, as represented by (the mutation of topoisomerase IV resulting from the mutation of parCand the mutation of DNA gyrase resulting from the mutation of gyrA). The character “w” means wild-type, representing without mutation.
row,Structure (SMILES),MIC [mg/L]
1,"COc1ccc2c(=O)cc(-c3ccc(O)cc3)oc2c1 [No. 69, 2-(4-hydroxyphenyl)-7-methoxychromen-4-one]",> 128
2,"CCn1cc(C(=O)O)c(=O)c2cc(F)c(N3CCNCC3)cc21 [Norfloxacin, norfloxacin, reference compound]",16

# — patent publication US20150322033A1, “ANTIBACTERIAL AGENT” (priority 2012, published 2015)
